Assay results published in patent US10508120B2, “TYK2 inhibitors and uses thereof” (Nimbus Lakshmi, Inc., priority 2017, dated 2019).
pKd: −log10 of the molar value. Where two headings read alike, the source gives them in different places.

Tests used:
Tyk2 kinase domain (DH1) = Tyk2 kinase domain (DH1) (Homo sapiens (Human), UniProt P29597); assay: Tyk2 Radioactive Kinase Assay; assay type: biochemical; conditions: for inhibition at 10 µM: read-out: Tyk2 JH1% Inhibition @ 10 μM
Method in brief: (§1)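 Values are single-concentration percent inhibition figures. They were obtained with 10 μM compound in a radioactivity-based kinase assay run separately on each enzyme.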

JAK2 kinase domain (JH1) = JAK2 kinase domain (JH1) (Homo sapiens (Human), UniProt O60674); assay: JAK2 Radioactive Kinase Assay; assay type: biochemical; conditions: for inhibition at 10 µM: read-out: JAK2 JH1% Inhibition @ 10 μM
Method in brief: as §1

[1] = target: human TYK2 (JH2domain-pseudokinase) (Homo sapiens (Human), UniProt P29597); assay: TYK2 JH2 Domain Binding Assay (KINOMEscan)
Method in brief: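 The construct was human TYK2 G556–D888 fused to the NFkB DNA-binding domain and expressed in HEK293 cells; unpurified extract was incubated with compound and liganded beads for 1 hour at room temperature.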

Sequence of Tyk2 kinase domain (DH1) (P29597 897-1176): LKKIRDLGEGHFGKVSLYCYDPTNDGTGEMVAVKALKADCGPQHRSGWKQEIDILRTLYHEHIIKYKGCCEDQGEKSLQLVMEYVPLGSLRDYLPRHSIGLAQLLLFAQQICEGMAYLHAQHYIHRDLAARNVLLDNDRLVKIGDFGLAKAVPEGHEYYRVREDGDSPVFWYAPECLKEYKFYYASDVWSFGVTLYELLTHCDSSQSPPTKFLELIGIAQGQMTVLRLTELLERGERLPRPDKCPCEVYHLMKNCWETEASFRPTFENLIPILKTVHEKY
Sequence of human TYK2 (JH2domain-pseudokinase) (P29597 556-888): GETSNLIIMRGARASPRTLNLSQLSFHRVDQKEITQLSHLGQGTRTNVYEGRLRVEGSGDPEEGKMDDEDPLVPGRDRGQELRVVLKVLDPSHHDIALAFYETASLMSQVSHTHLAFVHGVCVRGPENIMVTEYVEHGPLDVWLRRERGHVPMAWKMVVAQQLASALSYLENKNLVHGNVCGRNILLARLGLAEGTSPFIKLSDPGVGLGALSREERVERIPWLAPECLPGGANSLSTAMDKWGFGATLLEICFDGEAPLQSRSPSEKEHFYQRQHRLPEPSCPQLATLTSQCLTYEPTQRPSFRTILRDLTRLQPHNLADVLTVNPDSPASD
Sequence of JAK2 kinase domain (JH1) (O60674 849-1124): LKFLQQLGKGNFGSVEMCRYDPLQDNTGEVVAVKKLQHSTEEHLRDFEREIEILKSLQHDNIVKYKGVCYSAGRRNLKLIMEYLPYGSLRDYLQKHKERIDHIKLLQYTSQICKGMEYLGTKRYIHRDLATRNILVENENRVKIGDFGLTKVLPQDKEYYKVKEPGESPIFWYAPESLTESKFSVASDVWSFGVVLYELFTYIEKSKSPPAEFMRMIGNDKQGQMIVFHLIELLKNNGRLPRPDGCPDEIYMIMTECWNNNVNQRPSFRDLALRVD

Row | SMILES | inhibition at 10 µM (Tyk2 kinase domain (DH1); compound at 10 μM, ATP 10 μM) | inhibition at 10 µM (JAK2 kinase domain (JH1); compound at 10 μM, ATP 10 μM) | pKd [1] | Tyk2 JH1% Inhibition @ 10 μM (Tyk2 kinase domain (DH1); compound at 10 μM, ATP 10 μM) | JAK2 JH1% Inhibition @ 10 μM (JAK2 kinase domain (JH1); compound at 10 μM, ATP 10 μM) | inhibition at 10 µM (Tyk2 kinase domain (DH1); 10 μM compound, 10 μM ATP) | inhibition at 10 µM (JAK2 kinase domain (JH1); 10 μM compound, 10 μM ATP)
1 | Cc1c(Nc2cccnc2OC(C)C)nc2c(C(=O)N[C@@H]3C[C@@H]3F)cnn2c1N (stereo in doubt) [I-206, 7-amino-N-((1R,2S)-2-fluorocyclopropyl)-5-((2-isopropoxypyridin-3-yl)amino)-6-methylpyrazolo[1,5-a]pyrimidine-3-carboxamide] | < 50% | < 50% | 8.00 to 9.00 |  |  |  | 
2 | [2H]C([2H])([2H])Oc1ncccc1Nc1cc(NC)n2ncc(C(=O)NCCC(C)(C)O)c2n1 [I-421, N-(3-hydroxy-3-methylbutyl)-5-((2-(methoxy-d3)pyridin-3-yl)amino)-7-(methylamino)pyrazolo[1,5-a]pyrimidine-3-carboxamide] | < 50% | < 50% | 9.00 to 9.70 |  |  |  | 
3 | CNc1cc(Nc2cccn(C3CCOCC3)c2=O)nc2c(C(=O)N[C@H]3CC[C@H]3O)cnn12 [I-557] |  |  | 9.00 to 9.70 | A (percent inhibition at 10 μM lower than 50) | A (percent inhibition at 10 μM lower than 50) |  | 
4 | CNc1cc(-c2cn(C(C)C)c3ncc(Cl)cc23)nc2c(C(=O)N[C@@H]3C[C@@H]3F)cnn12 (stereo in doubt) [I-254, 5-(5-chloro-1-isopropyl-1H-pyrrolo[2,3-b]pyridin-3-yl)-N-((1R,2S)-2-fluorocyclopropyl)-7-(methylamino)pyrazolo[1,5-a]pyrimidine-3-carboxamide] | < 50% | < 50% | 9.00 to 9.70 |  |  |  | 
5 | CNc1cc(Nc2cccn([C@H]3CCCC[C@H]3OC)c2=O)nc2c(C(=O)NCC3(CO)CC3)cnn12 [I-1047] |  |  | 9.00 to 9.70 |  |  | < 50% | < 50%
6 | CNc1cc(Nc2cccn(C3=NC(C)(C)CS3)c2=O)nc2c(C(=O)N[C@@H]3C[C@@H]3F)cnn12 [I-526] | < 50% | < 50% | 9.00 to 9.70 |  |  |  | 
7 | CNc1cc(Nc2cccn([C@H]3CCCOC3)c2=O)nc2c(C(=O)N[C@H]3COC[C@H]3O)cnn12 [I-784] |  |  | < 8.00 | A (percent inhibition at 10 μM lower than 50) | A (percent inhibition at 10 μM lower than 50) |  | 
8 | CNc1cc(Nc2cccn(CCOC3CC3)c2=O)nc2c(C(=O)N[C@@H]3C[C@@H]3F)cnn12 [I-454] | < 50% | < 50% | > 9.70 |  |  |  | 
9 | CC(C)Oc1ncc(Cl)cc1Nc1cc(N)n2ncc(C(N)=O)c2n1 [I-79] | < 50% | < 50% | 9.00 to 9.70 |  |  |  | 
10 | CNc1cc(Nc2cccn([C@@H]3CCC[C@H]3OC)c2=O)nc2c(C(=O)N[C@@H]3C[C@@H]3F)cnn12 [I-486] | < 50% | < 50% | 9.00 to 9.70 |  |  |  | 
11 | CNc1cc(Nc2cccc([C@@H]3CCCOC3)n2)nc2c(C(=O)N[C@H]3CC[C@H]3O)cnn12 [I-644] | < 50% | < 50% | > 9.70 |  |  |  | 
12 | CNc1cc(Nc2cccn([C@@H]3CCCOC3)c2=O)nc2c(C(=O)NCC(C)(C)CO)cnn12 [I-598] | 50 to 70% | < 50% | > 9.70 |  |  |  | 
13 | CNc1cc(Nc2cccn([C@@H]3CCC[C@@H]3OC)c2=O)nc2c(C(=O)N[C@@H]3C[C@@H]3F)cnn12 [I-507] | < 50% | < 50% | 9.00 to 9.70 |  |  |  | 
14 | CNc1cc(Nc2cccn([C@@H]3CCN(C)CC3(F)F)c2=O)nc2c(C(=O)NC3CC3)cnn12 [I-824] |  |  | 9.00 to 9.70 |  |  | < 50% | < 50%
15 | CNc1cc(Nc2cccnc2OC2CC2)nc2c(C(=O)N[C@@H]3CC[C@@H](O)C3)cnn12 [I-490, 5-((2-cyclopropoxypyridin-3-yl)amino)-N-((1R,3R)-3-hydroxycyclopentyl)-7-(methylamino)pyrazolo[1,5-a]pyrimidine-3-carboxamide] | < 50% | < 50% | > 9.70 |  |  |  | 
16 | CNc1cc(Nc2cccn(C3CCN(C)CC3)c2=O)nc2c(C(=O)NC3CC3)cnn12 [I-348] | < 50% | < 50% | 9.00 to 9.70 |  |  |  | 
